Reference: the METLIN SMRT retention time set (Domingo-Almenara et al. 2019)

Experiment: gradient 5% acetonitrile 3 min, to 50% in 2 min, to 85% in 15 min, held 3 min, 100 µL/min
Settings: column: Zorbax Extend-C18 2.1 x 50 mm; eluents: water / acetonitrile, 0.1% formic acid
Outline: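 Pure standards were run in mixtures of ~100 molecules by HPLC coupled to a quadrupole time-of-flight mass spectrometer. The column was a Zorbax Extend-C18 (2.1 × 50 mm, 1.8 μm) at 100 μL/min, with water and acetonitrile each containing 0.1% formic acid, in positive and negative ionization mode. Dead and dwell volumes were 40 μL and 900 μL. Retention time was taken from computationally picked adduct peaks, each manually inspected, with data collected over 3 months.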

| RP-LC retention time [s] | SMILES |
| --- | --- |
| 1170 | CC1(C)C(=O)N2c3ccccc3C3(CC(N4C(=O)c5ccccc5C4=O)C(=O)O3)C2N1C(=O)OCc1ccccc1 (configuration not stated) |
| 708 | CCOc1cc(=O)n2c(c1C(=O)Nc1ccc(C#N)cc1)CCCC2 |
| 616 | CCn1c(CCNC(=O)c2cccc(F)c2)nc2cccnc21 |
| 812 | CC1(C)N=C(N)N=C(N)N1c1ccc(OCCCOc2ccccc2)c(Cl)c1 |
| 629 | COc1ccc(Cl)cc1S(=O)(=O)N1CCC(C(=O)NCCO)CC1 |
| 564 | CCn1cnc2c1CN(C(=O)c1ccc3c(c1)OCO3)CC2 |
| 1020 | COc1cc(OC)c(NC(=O)CSc2nccnc2N2CCSCC2)cc1Cl |
| 657 | Cc1ccc2nc(-c3cccc(S(=O)(=O)N4CCCC4)c3)cn2c1 |
| 1030 | CS(=O)(=O)Nc1ccc(C2(C(=O)NCCC3=CCCCC3)CCCCC2)cc1 |
| 560 | O=C(C1CCN(c2ccc3nncn3n2)CC1)N1CCN(c2ccccn2)CC1 |
| 670 | CCOC(=O)c1[nH]c(C)c(C(=O)N2CCC(CC(=O)NC(C)CC)CC2)c1C (configuration not stated) |
| 1100 | Cc1oc(-c2ccccc2)nc1Cc1noc(COc2ccc(F)cc2)n1 |
| 610 | COc1ccc(C2C(C(=O)NCCN3CCOCC3)c3cc(OC)c(OC)cc3C(=O)N2C)cc1 (configuration not stated) |
| 1020 | Cc1ccc(N2C(=O)N3CCc4c([nH]c5ccccc45)C3(C)C2=O)cc1 (configuration not stated) |
| 1030 | COc1ccc2c(c1)C=C(C(=O)N(C)c1ccccc1)C=CO2 |
| 828 | Cc1ccc(-c2cc3c(N4CCCC(C(=O)NC(C)C)C4)nccn3n2)c(C)c1 (configuration not stated) |
| 1010 | COc1ccc(-c2nc3cc(C)ccc3o2)cc1NC(=O)NCc1ccco1 |
| 591 | O=C(N[C@@H]1CN(Cc2ccc3c(c2)CCO3)C[C@H]1CO)C1CCC1 |
| 1050 | CCSc1nc2ccc(NS(=O)(=O)c3cc(F)cc(F)c3)cc2s1 |
| 607 | OC(CN1CCN(c2ncccn2)CC1)c1ccc(Br)cc1 (configuration not stated) |
| 948 | CN1C(=O)c2ccccc2Oc2ccc(C(=O)NCc3ccccc3Cl)cc21 |
| 636 | CS(=O)(=O)c1ccc(Nc2nc(C(=O)NCC3CCCO3)cs2)cc1 (configuration not stated) |

| RP-LC retention time [s] | SMILES |
| --- | --- |
| 691 | CC(C)CC(=O)N1CCC(Oc2nccnc2N(C)C)C1 (configuration not stated) |
| 795 | Cc1nc2ccccc2n(CCC(=O)NCCc2c[nH]c3ccc(Cl)cc23)c1=O |
| 762 | Cc1cc([N+](=O)[O-])nn1CC(=O)Nc1c(F)cc(F)cc1Br |
| 981 | C=CCn1c(C(=O)NCCc2c[nH]c3ccccc23)cc2cc(S(=O)(=O)N(C)C)ccc21 |
| 614 | O=C(NCc1csc(C2CCN(C(=O)C3CCCO3)CC2)n1)C1CC1 (configuration not stated) |
| 689 | Cc1cc(OCC(=O)N2CCCCC2CCN2CCOCC2)ccc1Cl (configuration not stated) |
| 842 | O=c1nccc(SCc2ccc(Cl)cc2Cl)[nH]1 |
| 690 | CN1C(=O)c2cccn2CC1C(=O)NCCc1c[nH]c2ccccc12 (configuration not stated) |
| 1010 | COc1cc2c(cc1CNC(=O)COc1ccc(Cl)c(C)c1)OCCCO2 |
| 953 | Cc1ccc(N2CCC(NC(=O)c3ccc(C(F)(F)F)cc3)C2=O)cc1 (configuration not stated) |
| 721 | Cc1ccc(-c2nc3cc(C)ccn3c2Nc2ccc3c(c2)OCCO3)cc1 |
| 794 | Cc1ccc(NC(=O)C2CCCN2S(=O)(=O)c2cc3c(cc2C)NC(=O)C(C)O3)cc1 (configuration not stated) |
| 1020 | CN1C(=O)C(C)(C(=O)N2CCC(Cc3ccccc3)CC2)Oc2cccnc21 (configuration not stated) |
| 878 | COc1cccc(NC(=O)N2CCC3(CC2)N=C(c2cccc(Cl)c2)C(=O)N3)c1 |
| 702 | COc1ccc(S(=O)(=O)N2CCCC(C(=O)NC3CC3)C2)cc1OC (configuration not stated) |
| 778 | Cc1[nH]c(C)c(S(=O)(=O)N2CCC(C(=O)NC3CCC(C)CC3)CC2)c1C(=O)N1CCCCC1 (configuration not stated) |
| 741 | O=C(Cc1nnc(-c2ccc3ncccc3c2)o1)Nc1ccc(F)c(F)c1 |
| 675 | O=C(Nc1ccc(F)cc1)N1CCCC(Cn2c(C3CC3)nc3cccnc32)C1 (configuration not stated) |
| 660 | COc1ccc(C2C(C(=O)N3CCCC3)c3cc(OC)c(OC)cc3C(=O)N2C)cc1OC (configuration not stated) |
| 717 | CC(C)c1nc(C2CN(C(=O)Nc3cc(F)cc(F)c3)C2)n(C)n1 |
| 1260 | CC(C)(C)c1csc(-c2csc(S(=O)(=O)Nc3ccc(F)c(F)c3)c2)n1 |
| 877 | CCNC(=O)NC1CCN(c2nc3cccnc3n(Cc3ccccc3)c2=O)CC1 |

| RP-LC retention time [s] | SMILES |
| --- | --- |
| 1060 | O=S(=O)(Nc1ccc(F)cc1)c1cccnc1Nc1ccc(F)cc1 |
| 723 | CC(C)c1cccc(NC(=O)Cn2cnc3nc(N4CCCC(C(=O)NC5CC5)C4)sc3c2=O)c1 (configuration not stated) |
| 784 | CCc1nc2nccc(-c3ccc(OC)cc3)n2n1 |
| 593 | COCCNC(=O)N1CCN(c2cc(-c3cccc(OC)c3)ncn2)CC1 |
| 743 | Cc1cc2c(cc1S(=O)(=O)N1CCCC1C(=O)Nc1ccc(F)cc1)OCC(=O)N2 (configuration not stated) |
| 719 | O=C(NCc1ccc2c(c1)OCO2)C1CCCN(c2nn3c(=O)c4c(nc3s2)CCCC4)C1 (configuration not stated) |
| 703 | COc1cccc(NC(=O)N2CC(c3nc(C)no3)C3(CCOCC3)C2)c1 (configuration not stated) |
| 810 | Cc1ccc(-c2cc3n(n2)CCCN(C(=O)c2ccoc2)C3)cc1 |
| 630 | Cc1ccc(-c2cn3ccccc3n2)cc1NS(=O)(=O)c1ccccc1 |
| 884 | Cc1ccc(CCNC(=O)Cc2csc3nc(-c4ccc(C)c(C)c4)cn23)cc1 |
| 689 | COCCN1C(=O)c2cccn2CC1CNC(=O)c1sccc1C (configuration not stated) |
| 836 | COc1cccc(CNC2=NCCNC23CCN(S(=O)(=O)c2ccc(C(C)C)cc2)CC3)c1 |
| 657 | CC(C)c1nnc(-c2coc(S(=O)(=O)N3CCN(c4ccccn4)CC3)c2)o1 |
| 721 | CN1C(=O)CCC2(CNC(=O)Nc3ccccc3)CCC=C12 (configuration not stated) |
| 777 | CC(C)C(=O)N1CCCCCCNC(=O)[C@@H]2CCCC[C@@H]21 |
| 784 | CC(C)NC(=O)c1ccc2c(c1)CCCN2C(=O)c1ccc(F)cc1 |
| 663 | COC(=O)c1c(C)[nH]c(C(=O)N2CCC(CC(=O)NC(C)C)CC2)c1C |
| 968 | O=C(NCCC1=CCCCC1)c1c[nH]c2ncccc12 |
| 1070 | COCCn1c(SCc2nc(-c3ccc(F)cc3)no2)nc2cc3c(cc2c1=O)OCO3 |
| 812 | COc1ccc(OC)c(CNC(=O)C2CCCN(c3ccc(=O)n(-c4ccc(F)cc4)n3)C2)c1 (configuration not stated) |
| 787 | CCC(C)NC(=O)N1CCCN(C2=NS(=O)(=O)C(c3ccc(F)cc3)=C2C)CC1 (configuration not stated) |

| SMILES | RP-LC retention time [s] |
| --- | --- |
| O=C(CN1CC=C(c2cnn(-c3ccc(F)cc3)c2)CC1)NCC1CCCO1 (configuration not stated) | 628 |
| Cc1nnsc1C(=O)N1CC2CC(C1)c1cccc(=O)n1C2 (configuration not stated) | 551 |
